“Also recorded” adds a separate entry of the source.
Tests used:
[1] = tested on: Taxol-induced mechanical allodynia; assay: Taxol-induced neuropathic pain rat model, 50% paw withdrawal threshold (up-down method); type: in vivo, Sprague-Dawley rats; conditions: rats
Source text: Sprague-Dawley male rats with 150-160 grams of body weight were used in the studies presented herein. Rats were trained in the enclosure one hour per day in the morning for a one week period prior to obtaining the baseline response. Whereas the mouse studies assessed percentage of response, the rat studies determined 50% of the paw withdrawal threshold, also called the up-down method as developed by Chung and colleagues. In order to obtain consistent data, naïve rats with paw withdrawal threshold no less than 4 grams were included for further studies. Taxol at a dose of 1 mg/kg (body weight) was administered daily to rats intraperitoneally. As observed in mice, the rats treated with Taxol daily developed stable mechanical allodynia on day 9 and thereafter. On day 13 and day 14 of Taxol induction, the rats pain behavior in term of 50% of paw withdrawal threshold was measured. Only those rats with paw withdrawal threshold measurements no greater than 7 grams for two consecutive days were included for drug testing. Generally speaking, the mechanical allodynia in Taxol treated rats fell in the range of 1-4 gram of paw withdrawal threshold.
1 ml per kg of body weight of either 50 mg/ml or 20 mg/ml of Compound A was administered to rats via oral gavage feeding (p.o.), to yield a dose of either 50 mg/Kg (body weight) or 20 mg/Kg (body weight). The same corresponding volume of 1% methylcellulose was used as vehicle control. 34 male Sprague-Dawely rats were employed for the study. The baseline paw withdrawal threshold (grams of force applied to the plantar area of the right hind paw) and neuropathic pain induction with daily intraperitoneal administration of 1 mg/kg (body weight) was performed as indicated in the previous section. The Taxol treatment was continued for 15 days until the pain threshold remained relatively stable. Animals with baseline greater than 4 grams and with threshold […] post induction were included in the drug testing. 27 rats met the criteria for the next step studies and were randomly assigned into four groups. Group 1 consisting of 7 rats was given 1% methylcellulose as vehicle control group, 1 ml of vehicle per kilograms of body weight was administered to animal via p.o.; group 2 with 6 animals was dosed at 20 mg/kg (body weight) of Compound A via oral gavage feeding (p.o.); group 3 with 7 rats was dosed at 50 mg/kg of Compound A, and the fourth group with 7 rats received Gabapentine at 50 mg/kg via p.o. in the same vehicle as a positive control group. Those rats were habituated in the enclosure and 50% of paw withdrawal thresholds (grams of force) were measured using a set of von Frey filaments, as described in the previous section, at time points of 1, 2, 3, 6, and 24 hours postdosing in a blinded fashion. The tester had no knowledge of which animals received drug or vehicle. It was noted that rats tested were very sleepy in the late afternoon (for 6 hour postdosing measurement), thus the data would not be reliable for 6-hour postdosing time points. […] After finishing the 24 hour postdosing measurement, the paw withdrawal threshold of each animal was calculated and data was analyzed.

[2] = tested on: Taxol-induced mechanical allodynia; assay: Taxol-induced neuropathic pain mouse model, von Frey filament paw withdrawal; type: in vivo, C57B16 mice; conditions: mice
Protocol: C57B16 male mice were preconditioned (trained) in the enclosure one hour per day in the morning for one week prior to the baseline measurement. The baseline response to the mechanical stimulus was measured using a von Frey filament with 0.6 gram of force (von Frey number 3.84). Briefly, the von Frey filament, was applied to the plantar area of the right hind paw of mouse. The frequency of paw withdrawal was calculated in terms of percentage response, where the higher percentage indicates more pain, whereas the lower the percentage indicates less pain. Based on past experience with the C57B16 strain of adult male mice, animals with baseline no greater than 40% of response were included in further studies, while those with greater than 40% of paw withdrawal response to this particular force of stimulus, known as spontaneous mechanical allodynia, were discarded from these studies. The paw withdrawal behavior includes, licking the stimulated paw, vigorously shaking the paw and active avoidance upon application of innocuous mechanical stimuli. For those mice without spontaneous mechanical allodynia, Taxol was administered to the mice daily, 5 days a week, for longer than a one week period. Generally, mice treated with daily i.p. administration of 1 mg/kg (body weight) of Taxol develop relatively stable mechanical allodynia, neuropathic pain, on day 9 and thereafter. Prior to compound A administration, the responses of mice to 0.6 gram of von Frey filament were measured for two consecutive days in the morning. Only those mice with paw withdrawal response to this particular von Frey filament stimulus no less than 60%, counted as mechanical allodynia, were included for later testing with the compounds of interest.
Five-week old, male C57B1/6 mice were purchased from Charles River and housed at the Renovis animal facility in South San Francisco. Mice were trained for one week in an enclosure made of Plexiglas with dimensions of 2 in×2.5 in×3.5 in (W, H, and L) with a meshed metal support. The baseline of response to mechanical stimulus was measured using a von Frey Filament (0.6 g=3.84 mN). Normally, the baseline response is between 0 to 40%.
Taxol was dissolved (1 mg/ml) in 50% Cremophor EL and 50% alcohol, and freshly diluted with saline to the final concentration of 0.2 mg/ml in 10% Cremophor EL, 10% alcohol. Mice were administered Taxol at 1 mg/kg of body weight, via ip daily, while the animals of the control group received vehicle (10% Cremophor EL and 10% alcohol in saline).
Five-week old C57B1/6 male mice were trained for one week in the von Frey filament test, and baseline response (percent paw withdrawal over 40 tests) to a von Frey filament (0.6 gram=3.84 mN) was measured (average shown in the graph as “baseline (mean)”=31%).
Trained mice were treated with 1 mg/kg (body weight) taxol in 10% Cremophor EL/10% ethanol via ip injection daily through the end of the experiment in order to induce the neuropathic pain state.
The percent pain response (percent paw withdrawal over 40 tests) with a von Frey filament (0.6 gram=3.84 mN) was measured at day 8 and day 9 after pain induction (average of these two shown in the graph as “pre-dosing (mean)”=75%). Those animals with either sensitive baseline (>40% response) or without pain (<60% response) after 9 days of taxol injection were not included in the data analysis. Animals receiving this daily dose of Taxol will develop neuropathic pain.
[…] The animals were then placed in the enclosure for assay. Mechanical allodynia was measured with von Frey filament (0.6 g=3.84 mN) at various times after administration.
Nine taxol-treated animals received […] vehicle (75% polyethylene glycol (PEG)) via ip injection; 8 taxol-treated animals were injected ip with a suspension of Compound A in vehicle at dose of 50 mg/kg (body weight). […]

[3] = 20 mg/kg p.o. in 1% methylcellulose

SMILES: CC(=O)Nc1ccc(C(=O)NC(C)(C)C)cc1 [Compound A, N-tert-butyl-4-acetamidobenzamide]
- analgesic effect on neuropathic pain (in words) [1, 3]: has an analgesic effect
- onset of analgesic effect [1, 3]: fast onset (one-hour postdosing)
- time of peak analgesic effect postdosing [1, 3]: 2 h
- paw withdrawal threshold ([1]; 20 mg/kg p.o. in 1% methylcellulose, vehicle about 4 grams): greater than 7 grams
- pain blocking effect (in words) ([1]; 50 mg/kg p.o. in 1% methylcellulose): showed a pain blocking effect at 1 hour postdosing, with the effect diminished later on
- analgesic effect compared with positive control ([1]; Compound A 20 mg/kg p.o. vs Gabapentine 50 mg/kg p.o.): comparable to the positive control
- mechanical allodynia under chronic dosing vs vehicle control ([2]; 5 mg/kg/per day and 10 mg/kg/per day i.p., one dose per day, Cremophor EL/ETOH/saline): less mechanical allodynia
- percentage response to 0.6 gram von Frey filament ([2]; 10 mg/kg i.p. in Cremophor EL/ETOH/saline, 3-hour postdosing, +/-SEM): 40+/−10.9%
- percentage response to 0.6 gram von Frey filament ([2]; 10 mg/kg i.p. in Cremophor EL/ETOH/saline, 6-hour postdosing, +/-SEM): 42+/−95%
- pain under chronic dosing ([2]; 10 mg/kg/per day i.p., Cremophor EL/ETOH/saline): much less pain
- percentage response to 0.6 gram von Frey filament ([2]; 20 mg/kg i.p. in Cremophor EL/ETOH/saline, 3-hours postdosing, not statistically significant (p 0.08)): 59+/−8.1%
- analgesic effect on Taxol-induced pain (in words) ([2]; 50 mg/kg i.p. single dose in 75% PEG-200, 50 mg/kg): has activity preventing Taxol-induced pain; also recorded: strong analgesic effect
- percentage of paw withdraw response to 0.6 gram von Frey filament ([2]; 50 mg/kg i.p. single dose in 75% PEG-200, 1-hour postdosing, +/-SEM): 20+/−7.6%
- percentage of paw withdraw response to 0.6 gram von Frey filament ([2]; 50 mg/kg i.p. single dose in 75% PEG-200, 2-hour postdosing (so in the source), +/-SEM): 32.5+/−13.1%
- percentage of paw withdraw response to 0.6 gram von Frey filament ([2]; 50 mg/kg i.p. single dose in 75% PEG-200, 24-hour postdosing, +/-SEM): 50+/−9.3%
- percentage of paw withdraw response to 0.6 gram von Frey filament ([2]; 50 mg/kg i.p. single dose in 75% PEG-200, 48-hour postdosing, +/-SEM): 65+/−6.3%
- time of peak analgesic efficacy post dosing ([2]; 5 and 10 mg/kg i.p. in Cremophor EL/ETOH/saline): 3 h
- drug tolerance or drug accumulation under chronic dosing ([2]; 5 and 10 mg/kg/per day i.p. chronic dosing): no significant drug tolerance or drug accumulation effects
